Source: the OPERA property sets (Mansouri et al. 2018)
In brackets after ≈: the same amount, converted by molar mass.

| SMILES | logP | further results |
| --- | --- | --- |
| CCC(C)(NC(=O)c1cc(Cl)c(C)c(Cl)c1)C(=O)CCl (configuration not stated) | 3.76 | – |
| CCCC(=O)N(CSP(=S)(OC)OC)c1ccccc1Cl | 0.56 | – |
| C[n+]1ccc(-c2cc[n+](C)cc2)cc1.[Cl-].[Cl-] | -4.5 | solubility (20 °C): 2720 mM |
| C/C=C(\C)C(=O)O[C@H]1C[C@@H](OC(C)=O)[C@@]2(C(=O)OC)CO[C@H]3[C@@H](O)[C@@](C)([C@]45O[C@@]4(C)[C@H]4C[C@@H]5O[C@@H]5OC=C[C@@]54O)[C@H]4[C@]1(CO[C@]4(O)C(=O)OC)[C@@H]32 | – | solubility: 0.361 mM (≈ 260 µg/mL) |
| N#CN | -0.82 | solubility (20 °C): 11900 mM (≈ 500000 µg/mL) |
| CCCC1COC(Cn2cncn2)(c2ccc(Cl)cc2Cl)O1 (configuration not stated) | 3.72 | solubility (20 °C): 0.321 mM (≈ 110 µg/mL) |
| O=[N+]([O-])/N=C1\NCCN1Cc1ccc(Cl)nc1 | 0.57 | – |
| COC(=O)N(OC)c1ccccc1COc1ccn(-c2ccc(Cl)cc2)n1 | 3.99 | – |
| CSc1nnc(C(C)(C)C)c(=O)n1/N=C/C(C)C | – | solubility (20 °C): 0.0373 mM (≈ 10 µg/mL) |
| C[C@@H]1[C@@H](c2ccc(Cl)cc2)SC(=O)N1C(=O)NC1CCCCC1 (single isomer, unassigned) | – | solubility (20 °C): 0.00142 mM (≈ 0.5 µg/mL) |
| CC1=C(C(=O)Nc2ccccc2)SCCO1 | – | solubility (20 °C): 0.672 mM (≈ 158 µg/mL) |
| Cc1ccc2nc3sc(=O)sc3nc2c1 | 3.78 | solubility (20 °C): 0.00427 mM (≈ 1 µg/mL) |
| O=C(Nc1ccccc1)Nc1cnns1 | – | logD (pH 7.3): 1.77 |
| CC1=C(C(=O)Nc2ccccc2)S(=O)(=O)CCO1 | 0.77 | solubility (25 °C): 4.43 mM (≈ 1180 µg/mL) |
| COC(=O)c1ccccc1S(=O)(=O)NC(=O)Nc1nc(C)cc(C)n1 | – | solubility (pH 7.0, 25 °C): 0.743 mM (≈ 271 µg/mL) |
| CN1CSC(=S)N(C)C1 | 0.63 | solubility (20 °C): 18.5 mM (≈ 3000 µg/mL) |
| CC1OC(C)OC(C)OC(C)O1 (configuration not stated) | 0.12 | – |
| COC(=O)N(C(=O)N1CO[C@@]2(C(=O)OC)Cc3cc(Cl)ccc3C2=N1)c1ccc(OC(F)(F)F)cc1 | 4.65 | – |
| CCC(CC)Nc1c([N+](=O)[O-])cc(C)c(C)c1[N+](=O)[O-] | 5.2 | solubility (20 °C): 0.00107 mM (≈ 0.3 µg/mL) |
| Nc1nc[nH]n1 | -0.97 | – |
| N#Cc1c(Cl)c(Cl)c(Cl)c(C#N)c1Cl | – | solubility (25 °C): 0.00226 mM (≈ 0.6 µg/mL) |
| COC(=O)c1ccccc1CS(=O)(=O)NC(=O)Nc1nc(OC)cc(OC)n1 | 2.18 | – |
| CCN(CC)c1c([N+](=O)[O-])cc(C(F)(F)F)c(N)c1[N+](=O)[O-] | 4.3 | – |
| CCCN(CC1CC1)c1c([N+](=O)[O-])cc(C(F)(F)F)cc1[N+](=O)[O-] | – | solubility (20 °C): 0.000288 mM (≈ 0.1 µg/mL) |
| CCOC(=O)COc1cc(-c2nn(C)c(OC(F)F)c2Cl)c(F)cc1Cl | 3.49 | – |
| C=CCOC(Cn1ccnc1)c1ccc(Cl)cc1Cl (configuration not stated) | 3.82 | solubility (pH 7.6, 20 °C): 0.606 mM (≈ 180 µg/mL) |
| CCCCOC(=O)[C@@H](C)Oc1ccc(Oc2ccc(C#N)cc2F)cc1 | 3.31 | – |

| SMILES | logP | further results |
| --- | --- | --- |
| CCCCNC1(P(=O)(OCCCC)OCCCC)CCCCC1 | – | solubility (20 °C): 0.489 mM (≈ 170 µg/mL) |
| C#CCOS(=O)OC1CCCCC1Oc1ccc(C(C)(C)C)cc1 (configuration not stated) | – | solubility (25 °C): 0.00143 mM (≈ 0.5 µg/mL) |
| CN/C(=N\[N+](=O)[O-])NCc1cnc(Cl)s1 | 0.7 | – |
| Fc1ccc(Oc2ccnc3cc(Cl)cc(Cl)c23)cc1 | 4.66 | solubility (20 °C): 0.000376 mM (≈ 0.116 µg/mL) |
| O=C(Nc1ccccc1-c1ccc(Cl)cc1)c1cccnc1Cl | 2.96 | – |
| CCSC(=O)N(CC)C1CCCCC1 | 3.88 | – |
| CC1(C(=O)Nc2ccc(O)c(Cl)c2Cl)CCCCC1 | 3.51 | – |
| CC(Oc1cccc(Cl)c1)C(=O)O (configuration not stated) | – | solubility (22 °C): 5.98 mM (≈ 1200 µg/mL) |
| CON=C(C(=O)OC)c1ccccc1CON=C(C)c1cccc(C(F)(F)F)c1 | 4.5 | – |
| CCCCC(CC)COC(=O)COc1ccc(Cl)cc1Cl (configuration not stated) | 5.78 | – |
| COC(=O)c1ccccc1S(=O)(=O)NC(=O)N(C)c1nc(C)nc(OC)n1 | – | solubility (pH 5.0, 25 °C): 0.126 mM (≈ 50 µg/mL) |
| CN(C)C(=S)SSC(=S)N(C)C | 1.73 | – |
| CC(C)=CC1C(C(=O)OCc2cccc(Oc3ccccc3)c2)C1(C)C (configuration not stated) | 6.01 | solubility (25 °C): < 2.77e-05 mM |
| C[n+]1ccc(-c2cc[n+](C)cc2)cc1 | – | solubility (20 °C): 2410 mM |
| CCOP(=O)(OCC)SCCSCC | – | solubility (20 °C): 7.74 mM (≈ 2000 µg/mL) |
| Clc1ccc(C2(Cn3cncn3)CC(Br)CO2)c(Cl)c1 (configuration not stated) | 3.24 | solubility (25 °C): 0.133 mM (≈ 50 µg/mL) |
| Nc1c(Cl)c(Cl)nc(C(=O)O)c1Cl | 1.9 | – |
| CCN(Cc1ccc(Cl)nc1)/C(=C/[N+](=O)[O-])NC | -0.66 | – |
| CCCCCCCC(=O)Oc1c(Br)cc(C#N)cc1Br | 5.4 | – |
| CC(C)=CC1C(C(=O)OCc2coc(Cc3ccccc3)c2)C1(C)C (configuration not stated) | – | solubility (25 °C): 0.000315 mM (≈ 0.107 µg/mL) |
| CC(C)N(C(=O)CCl)c1ccccc1 | – | solubility (25 °C): 3.31 mM (≈ 700 µg/mL) |
| N#CCON=C(C#N)c1ccccc1 | – | solubility (20 °C): 0.513 mM (≈ 95 µg/mL) |
| Nc1c(Cl)c(F)nc(OCC(=O)O)c1Cl | – | solubility (pH 9.2, 20 °C): 0.357 mM (≈ 91 µg/mL) |
| CCC(C)(CC)c1cc(NC(=O)c2c(OC)cccc2OC)on1 | 3.94 | – |
| CCOC1Oc2ccc(OS(C)(=O)=O)cc2C1(C)C (configuration not stated) | 2.7 | solubility (25 °C): 0.259 mM (≈ 74.1 µg/mL) |
| CC(C)N1C(=O)N(c2ccccc2)CSC1=NC(C)(C)C | 4.3 | solubility (20 °C): 0.00295 mM (≈ 0.9 µg/mL) |
| O=[N+]([O-])c1cc(C(F)(F)F)c(Cl)c([N+](=O)[O-])c1Nc1ncc(C(F)(F)F)cc1Cl | 4.01 | – |
